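Cells were grown in 96-well plates and exposed to each compound for 48 hours at five concentrations; endpoints were interpolated linearly between bracketing concentrations, or set to the highest concentration if not reached. TGI is the concentration that stops growth completely.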
What was measured:
Test in all cases: inhibition of tumour cell growth, NCI panel, 48 h
[1] = system: UO-31 renal
[2] = system: 786-0 renal
[3] = system: SK-MEL-2 melanoma
[4] = system: SNB-75 CNS
[5] = system: M14 melanoma
[6] = system: HT29 colon
[7] = system: MALME-3M melanoma
[8] = system: MCF7 breast
[9] = system: RXF 393 renal
[10] = system: NCI-H522 lung
[11] = system: OVCAR-8 ovarian
[12] = system: IGROV1 ovarian
[13] = system: NCI/ADR-RES ovarian
[14] = system: UACC-62 melanoma
[15] = system: HCC-2998 colon
[16] = system: SW-620 colon
[17] = system: DU-145 prostate
[18] = system: COLO 205 colon
[19] = system: KM12 colon
[20] = system: EKVX NSCLC
[21] = system: SF-268 CNS
[22] = system: SK-OV-3 ovarian
[23] = system: SK-MEL-28 melanoma
[24] = system: HL-60(TB) leukemia
[25] = system: HOP-92 NSCLC
[26] = system: MDA-MB-231 breast
[27] = system: PC-3 prostate
[28] = system: OVCAR-4 ovarian
[29] = system: HCT-116 colon
[30] = system: NCI-H23 lung
[31] = system: HOP-62 NSCLC
[32] = system: SF-295 CNS
[33] = system: SN12C renal
[34] = system: SF-539 CNS
[35] = system: MDA-MB-435
[36] = system: A498 renal
[37] = system: SK-MEL-5 melanoma
[38] = system: BT-549 breast
[39] = system: HS 578T breast
[40] = system: ACHN renal
[41] = system: T-47D breast
[42] = system: OVCAR-5 ovarian
[43] = system: MDA-N
[44] = system: NCI-H226 lung
[45] = system: HCT-15 colon
[46] = system: CCRF-CEM leukemia
[47] = system: U251 CNS
[48] = system: CAKI-1 renal
[49] = system: A549 NSCLC
[50] = system: SNB-19 CNS
[51] = system: NCI-H460 lung
[52] = system: TK-10 renal
[53] = system: OVCAR-3 ovarian
[54] = system: UACC-257 melanoma
[55] = system: LOX IMVI melanoma

Question: For `OC(CCN1CCN(CCOC(c2ccccc2)c2ccccc2)CC1)c1ccccc1` (stereo not given), which TGI [1] is on record?
Answer: 44 µM

Question: What about the TGI [2] of the same molecule?
Answer: 33.8 µM

Question: What about the TGI [3] of the same molecule?
Answer: 31.6 µM

Question: And the TGI [4]?
Answer: > 100 µM

Question: And the TGI [5]?
Answer: 34.1 µM

Question: And the TGI [6]?
Answer: 33.5 µM

Question: What about the TGI [7] of the same molecule?
Answer: 32.6 µM

Question: And the TGI [8]?
Answer: 47.4 µM

Question: What about the TGI [9] of the same molecule?
Answer: 48.6 µM

Question: And the TGI [10]?
Answer: 32.7 µM

Question: What about the TGI [11] of the same molecule?
Answer: 33 µM

Question: What about the TGI [12] of the same molecule?
Answer: 59.3 µM

Question: And the TGI [13]?
Answer: 73.1 µM

Question: And the TGI [14]?
Answer: 30.2 µM

Question: And the TGI [15]?
Answer: 28.9 µM

Question: What about the TGI [16] of the same molecule?
Answer: > 100 µM

Question: And the TGI [17]?
Answer: > 100 µM

Question: What about the TGI [18] of the same molecule?
Answer: 29.1 µM

Question: What about the TGI [19] of the same molecule?
Answer: 51.1 µM

Question: What about the TGI [20] of the same molecule?
Answer: 45.8 µM

Question: And the TGI [21]?
Answer: 57 µM

Question: And the TGI [22]?
Answer: > 100 µM

Question: What about the TGI [23] of the same molecule?
Answer: 34.4 µM

Question: And the TGI [24]?
Answer: 44.3 µM

Question: And the TGI [25]?
Answer: 75.8 µM

Question: And the TGI [26]?
Answer: 33.6 µM

Question: And the TGI [27]?
Answer: 65.5 µM

Question: And the TGI [28]?
Answer: > 100 µM

Question: And the TGI [29]?
Answer: 34.3 µM

Question: And the TGI [30]?
Answer: 63.1 µM

Question: What about the TGI [31] of the same molecule?
Answer: 44.3 µM

Question: What about the TGI [32] of the same molecule?
Answer: 38.8 µM

Question: And the TGI [33]?
Answer: 82.3 µM

Question: And the TGI [34]?
Answer: 36.8 µM

Question: And the TGI [35]?
Answer: 38.3 µM

Question: What about the TGI [36] of the same molecule?
Answer: 21.6 µM

Question: What about the TGI [37] of the same molecule?
Answer: 29.6 µM

Question: And the TGI [38]?
Answer: 60.5 µM

Question: What about the TGI [39] of the same molecule?
Answer: 45 µM

Question: What about the TGI [40] of the same molecule?
Answer: > 100 µM

Question: And the TGI [41]?
Answer: 48.8 µM

Question: What about the TGI [42] of the same molecule?
Answer: > 100 µM

Question: What about the TGI [43] of the same molecule?
Answer: 36.8 µM

Question: What about the TGI [44] of the same molecule?
Answer: 88.2 µM

Question: And the TGI [45]?
Answer: 37.1 µM

Question: And the TGI [46]?
Answer: > 100 µM

Question: And the TGI [47]?
Answer: 36 µM

Question: What about the TGI [48] of the same molecule?
Answer: > 100 µM

Question: What about the TGI [49] of the same molecule?
Answer: > 100 µM

Question: And the TGI [50]?
Answer: 88.6 µM

Question: And the TGI [51]?
Answer: 35.7 µM

Question: What about the TGI [52] of the same molecule?
Answer: 59.8 µM

Question: What about the TGI [53] of the same molecule?
Answer: 81.1 µM

Question: What about the TGI [54] of the same molecule?
Answer: 34.8 µM

Question: What about the TGI [55] of the same molecule?
Answer: 34.2 µM

— PubChem BioAssay (NCI)
